Results on 16 molecules are retold here after US7625891B2, “Heterocylic antiviral compounds” (Roche Palo Alto LLC, priority 2007, dated 2009).

Bounds are passed on as bounds.

In data set [1] the target is T1, CCR5 (Homo sapiens, UniProt P51681). The data set is described as follows: Human CCR5 receptor-ligand binding assay (125I RANTES, CHO-Gα16-hCCR5 cells). Also noted: expressed in transfected cells. As for the experimental part:
The construct was transfected into CHO-Gα16 cells by using Fugene Reagent (Roche).
Adherent cells in […] tissue culture flask (ca. 90% confluent) were harvested using 1 mM EDTA in PBS (phosphate-buffered saline) without Ca^2+ and Mg^2+. Cells were washed twice with PBS containing no Ca^2+ and Mg^2+.
Eighty μl CHO-Gα16-hCCR5 (1×10^6/mL) cells were added to 96 well plates.
The compound dilutions were made in PBS, 1% BSA. Total reaction volume was 100 μl per well. The test compounds were added to the cells prior to the addition of radioligand.
After incubation, the cells were harvested onto GF/C filter plates using Packard cell harvester. Filters were pretreated with 0.3% PEI/0.2% BSA for 30 min. The filter plate was washed rapidly 5 times with 25 mM HEPES, 500 mM NaCl, 1 mM CaCl2 and 5 mM MgCl2 adjusted to pH 7.1. Plates were dried in oven (70° C.) for 20 min, added with 40 μl scintillation fluid and sealed with Packard TopSeal-A. Packard Top Count was used to measure of the radioactivity for 1 min per well.
Total binding was determined with control wells added with radioisotope and buffer and the non-specific binding was determined using an excess cold RANTES to some of the control wells. Specific binding was determined by subtracting the non-specific form total binding. […] IC50 values were determined using varying concentrations of the test ligand in triplicates and the data was analyzed using GraphPad Prism (GraphPad, San Diego, Calif.).

The target in data set [2] is T1, CCR5. The data set is described as follows: CCR5-mediated CCF (cell-cell fusion) assay, Hela-R5 / CEM-NKr-CCR5-Luc, luciferase readout. It counts as cell-based. Set-up: host or cells: CEM-NKr-CCR5-Luc cells. The following applies: 24 hrs co-culture. As for the experimental part:
The capacity for novel compounds of the present invention to bind to the CCR5 receptor and thereby antagonize CCR5 function can be evaluated with assay systems known in the art. The capacity of compounds of the present invention to inhibit infection of CD4^+/CCR5^+ expressing cells can be determined using a cell-cell fusion assay as described in example 8 or an antiviral assay as described in example 9.
CCF assay was performed as described before (C. Ji, J. Zhang, N. Cammack and S. Sankuratri, J. Biomol. Screen. 2006 11(6):652-663). Hela-R5 cells (express gp160 from R5-tropic virus and HIV-1 Tat) were plated in 384 well white culture plates (BD Bioscience, Palo Alto, Calif.) at […] per well in phenol red-free Dulbecco's Modified Eagle Medium (DMEM) supplemented with 10% FBS, 1× Pen-Strep, 300 μg/mL G418, 100 μg/mL hygromycin, and 1 μg/mL Doxycycline (Dox) (BD Bioscience, Palo Alto, Calif.), using Multimek (Beckman, Fullerton, Calif.) and incubated at 37° C. overnight to induce the expression of gp160. Ten μL diluted compounds in medium containing 5% DMSO were added to the cells, followed by the addition of CEM-NKr-CCR5-Luc (obtained from NIH AIDS Research & Reference Reagents Program) that expresses CD4 and CCR5 and carries a […] long terminal repeat (LTR)-driven luciferase reporter gene at 1.5×10^4 cells/15 μL/well and incubated for 24 hrs. At the end of co-culture, 15 μL of Steady-Glo luciferase substrate was added into each well, and the cultures were sealed and gently shaken for 45 min. The luciferase activity were measured for 10 sec per well as luminescence by using 16-channel TopCount NXT (PerkinElmer, Shelton, CT) with 10 min dark adaptation and the readout is count per second (CPS). For the drug interaction experiments, small molecule compounds or antibodies were serially diluted in serum-free and phenol red-free RPMI containing 5% DMSO (CalBiochem, La Jolla, Calif.) and 1× Pen-Strep. Five μL each of the two diluted compound or mAb to be tested for drug-drug interactions were added to the Hela-R5 cells right before the addition of target cells.

In data set [3] the test system is collagen-induced arthritis. Conditions: collagen-induced arthritis model; cited from earlier work.
The next data set deals with NLBal pseudotyped HIV-1. The data set is described as follows: microbe, parasite or virus in culture. In kind it is cell-based. The following applies: Human immunodeficiency virus 1, JC53BL, 72 h. As for the experimental part: The sensitivity of a recombinant HIV-1 virus pseudotyped with the envelope proteins of the CCR5-tropic virus NLBal to test compounds was determined in a Luciferase reporter assay using JC53BL cells. NLBal pseudotyped HIV-1 was generated by calcium phosphate transfection of 293T cells (ATCC) with equal amounts of DNA of an envelope-deleted HIV-1 plasmid and of a NLBal envelope expression plasmid. The media (DMEM, 10% fetal bovine serum, 1% Penicillin/streptomycin, 1% Glutamine, all Gibco) was changed 16 h post-transfection and virus containing supernatant was harvested 48 h post-transfection. To determine the sensitivity of NLBal pseudotyped HIV-1, 25.000 JC53BL cells (NIH AIDS Reagent Program) were infected with NLBal pseudotyped HIV-1 in presence of a drug gradient in white 96 well plates (Greiner Bio-one). The volume was adjusted to 200 μL using assay media (DMEM, 10% fetal bovine serum, 1% Penicillin/streptomycin, 1% Glutamine). After incubation at 37° C., 90% relative humidity, 5% CO2 for 3 days, 50 μL of Steady-Glo® Luciferase reagent (Promega) was added, incubated for 5 min at RT and luminescence was measured using a luminometer (Luminoskan, Thermo). The 50% and 90% inhibitory concentrations were calculated using Microsoft XL Fit 4 software.

A further data set relates to HIV. The following applies: cited from earlier work.
The mark [4] stands for this setting: specific 125I RANTES binding, CHO-Gα16-hCCR5 cells, read-out: IC50.

As a reminder, the IC50 is the concentration needed to halve the response being measured. A word on the melting point: it is the temperature of the solid-liquid transition.

T1 sequence (P51681 whole entry): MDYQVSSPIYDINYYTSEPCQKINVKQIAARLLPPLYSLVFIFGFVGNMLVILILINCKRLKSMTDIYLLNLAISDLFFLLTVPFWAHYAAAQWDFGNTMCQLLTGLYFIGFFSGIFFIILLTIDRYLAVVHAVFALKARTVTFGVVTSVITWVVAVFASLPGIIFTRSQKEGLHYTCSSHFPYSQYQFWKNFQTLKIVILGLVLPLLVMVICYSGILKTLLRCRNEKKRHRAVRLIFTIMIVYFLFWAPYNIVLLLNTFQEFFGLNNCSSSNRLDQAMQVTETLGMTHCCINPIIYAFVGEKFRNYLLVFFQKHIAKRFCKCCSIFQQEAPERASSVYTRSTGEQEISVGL

Consider `CCCC[C@H]1CN(C[C@H]2[C@@H]3COC[C@@H]32)C(=O)OC12CCN(C1(C)CCN(C(=O)c3c(C)cc(C(F)F)nc3C)CC1)CC2` [II-4], for which the concentration for half-maximal inhibition (IC50) at CCR5 [1] (setting [4]) amounted to 10.8 nM. As for `CCCCC1CN(C[C@H]2CC[C@H](OCC)CC2)C(=O)OC12CCN(C1(C)CCN(C(=O)c3c(C)ncnc3C)CC1)CC2` (stereo partly drawn) [Compound I-7, 5-Butyl-9-[1-(4,6-dimethyl-pyrimidine-5-carbonyl)-4-methyl-piperidin-4-yl]-3-(trans-4-ethoxy-cyclohexylmethyl)-1-oxa-3,9-diaza-spiro[5.5]undecan-2-one], the melting point lay within 188.3 to 189.7 °C.

On to `CCCC[C@H]1CN(CC2CCN(C(=O)OC)CC2)C(=O)OC12CCN(C1(C)CCN(C(=O)c3c(C)ncnc3C)CC1)CC2` [III-6], for which the IC50 at CCR5 [1] (setting [4]) is 46.5 nM.

In the case of `CCCC[C@H]1CN(CC2CCN(CC(F)F)CC2)C(=O)OC12CCN(C1(C)CCN(C(=O)c3c(C)cc(C#N)nc3C)CC1)CC2` [III-12], the IC50 on CCR5 [1] came to 49.4 nM. For `CCCCC1CN(CC2CCCN(C(C)=O)C2)C(=O)OC12CCN(C1(C)CCN(C(=O)c3c(C)ncnc3C)CC1)CC2` (stereo not shown) [III-2], the IC50 against CCR5 [2] turned out to be 17.4 nM. In the case of `CCCCC1CN(C[C@H]2CC[C@H](OC)CC2)C(=O)OC12CCN(C1(C)CCN(C(=O)c3c(C)ncnc3C)CC1)CC2` (stereo partly drawn) [Compound I-3, 5-Butyl-9-[1-(4,6-dimethyl-pyrimidine-5-carbonyl)-4-methyl-piperidin-4-yl]-3-(trans-4-methoxy-cyclohexylmethyl)-1-oxa-3,9-diaza-spiro[5.5]undecan-2-one], the melting point fell in the range of 150.8 to 152.9 °C. Consider `Cc1ccc(-c2ccc3c(c2)C=C(C(=O)Nc2ccc(C[N+](C)(C)C4CCOCC4)cc2)CCC3)cc1.[Cl-]` [TAK-779], for which, in data set [3], the “incidence and severity of arthritis” value was “reduce both the incidence and severity of arthritis”; the “infiltration of inflammatory CCR5+ T-cells into the joint” value is “inhibited”. Take `CCCC[C@H]1CN(CC2CCN(S(C)(=O)=O)CC2)C(=O)OC12CCN(C1(C)CCN(C(=O)c3c(C)noc3C(F)(F)F)CC1)CC2` [III-23]: the IC50 in the data set on NLBal pseudotyped HIV-1 was 6 nM; at CCR5 [1] (setting [4]), 38.8 nM; on CCR5 [2], < 2.5 nM. Consider `CCCC[C@H]1CN(C[C@H]2[C@@H]3CN(C(=O)OC)C[C@@H]32)C(=O)OC12CCN(C1(C)CCN(C(=O)c3c(C)noc3C(F)(F)F)CC1)CC2` [III-20], for which the IC50 in the data set with NLBal pseudotyped HIV-1 was 3 nM; on CCR5 [1] (setting [4]) it was 14 nM; against CCR5 [2], < 2.5 nM. `CCCC[C@H]1CN(C[C@H]2C[C@H]3CC[C@@H](C2)N3C(=O)OC)C(=O)OC12CCN(C1(C)CCN(C(=O)c3c(C)ncnc3C)CC1)CC2` [III-22]: the results for the IC50 in the data set with NLBal pseudotyped HIV-1, at CCR5 [1] (setting [4]) and against CCR5 [2] were 2.2 nM, 21.2 nM and 3 nM, respectively. Regarding `CCCC[C@H]1CN(CC2COC3OCCC23)C(=O)OC12CCN(C1(C)CCN(C(=O)c3c(C)ncnc3C)CC1)CC2` (single isomer, unassigned) [II-6], the concentration for half-maximal inhibition (IC50) on CCR5 [1] (setting [4]) is 38 nM.

For `CCCC[C@H]1CN(C[C@H]2COCCO2)C(=O)OC12CCN(C1(C)CCN(C(=O)c3c(C)cc(C#N)nc3C)CC1)CC2` [II-10], the IC50 turned out to be 2.6 nM with NLBal pseudotyped HIV-1, 17.2 nM on CCR5 [1] (setting [4]) and 1 nM against CCR5 [2]. On to `CCCCC1CN(C[C@H]2CC[C@@H](OCOC)CC2)C(=O)OC12CCN(C1(C)CCN(C(=O)c3c(C)ncnc3C)CC1)CC2` (stereo partly drawn) [Compound I-8, 5-Butyl-9-[1-(4,6-dimethyl-pyrimidine-5-carbonyl)-4-methyl-piperidin-4-yl]-3-(cis-4-methoxymethoxy-cyclohexylmethyl)-1-oxa-3,9-diaza-spiro[5.5]undecan-2-one], for which the IC50 in the data set on NLBal pseudotyped HIV-1 came to 5.2 nM. Take `CCCC[C@H]1CN(C2CCC(F)(F)CC2)C(=O)OC12CCN(C1(C)CCN(C(=O)c3c(C)ncnc3C)CC1)CC2` [IV-7, (S)-5-Butyl-3-(4,4-difluoro-cyclohexyl)-9-[1-(4,6-dimethyl-pyrimidine-5-carbonyl)-4-methyl-piperidin-4-yl]-1-oxa-3,9-diaza-spiro[5.5]undecan-2-one]: at CCR5 [1] (setting [4]), the IC50 turned out to be 19.2 nM.

`CCCCC1CN(CC2CCN(C(C)=O)CC2)C(=O)OC12CCN(C1(C)CCN(C(=O)c3c(C)ncnc3C)CC1)CC2` (stereo not shown) [III-1, 3-(1-Acetyl-piperidin-4-ylmethyl)-5-butyl-9-[1-(4,6-dimethyl-pyrimidine-5-carbonyl)-4-methyl-piperidin-4-yl]-1-oxa-3,9-diaza-spiro[5.5]undecan-2-one]: the IC50 against CCR5 [2] turned out to be 25.2 nM.

B1: RANTES: CC chemokine, naturally occurring ligand that can stimulate the CCR5 receptor (protein, UniProt P13501 24-91, looked up)
C-C motif chemokine 5: SPYSSDTTPCCFAYIARPLPRAHIKEYFYTSGKCSNPAVVFVTRKNRQVCANPEKKWVREYINSLEMS
On to B1, for which the “HIV entry into the cells” value with HIV is given as “block HIV entry into the cells”.
